Measurements as given in ChEMBL document CHEMBL1139297, “Synthesis and stereochemical effects of pyrrolidinyl-acetylenic thieno[3,2-d]pyrimidines as EGFR and ErbB-2 inhibitors” (Bioorg Med Chem Lett, 2009).
pEC50, pIC50: −log10 of the molar value.

Assays:
BT-474 = test: Antiproliferative activity against human BT474 cells overexpressing ERBb2 after 3 days by methylene blue staining; type: functional, cell-based; conditions: BT-474, 72 h
HN5 = test: Antiproliferative activity against human HN5 cells overexpressing EGFR after 3 days by methylene blue staining; conditions: HN5, 72 h
HFF = test: Antiproliferative activity against human HFF cells after 3 days by methylene blue staining; conditions: 72 h
[1] = biological target: T1, Epidermal growth factor receptor (Homo sapiens, UniProt P00533); test: Inhibition of EGFR by scintillation proximity assay
T1 sequence (P00533 whole entry): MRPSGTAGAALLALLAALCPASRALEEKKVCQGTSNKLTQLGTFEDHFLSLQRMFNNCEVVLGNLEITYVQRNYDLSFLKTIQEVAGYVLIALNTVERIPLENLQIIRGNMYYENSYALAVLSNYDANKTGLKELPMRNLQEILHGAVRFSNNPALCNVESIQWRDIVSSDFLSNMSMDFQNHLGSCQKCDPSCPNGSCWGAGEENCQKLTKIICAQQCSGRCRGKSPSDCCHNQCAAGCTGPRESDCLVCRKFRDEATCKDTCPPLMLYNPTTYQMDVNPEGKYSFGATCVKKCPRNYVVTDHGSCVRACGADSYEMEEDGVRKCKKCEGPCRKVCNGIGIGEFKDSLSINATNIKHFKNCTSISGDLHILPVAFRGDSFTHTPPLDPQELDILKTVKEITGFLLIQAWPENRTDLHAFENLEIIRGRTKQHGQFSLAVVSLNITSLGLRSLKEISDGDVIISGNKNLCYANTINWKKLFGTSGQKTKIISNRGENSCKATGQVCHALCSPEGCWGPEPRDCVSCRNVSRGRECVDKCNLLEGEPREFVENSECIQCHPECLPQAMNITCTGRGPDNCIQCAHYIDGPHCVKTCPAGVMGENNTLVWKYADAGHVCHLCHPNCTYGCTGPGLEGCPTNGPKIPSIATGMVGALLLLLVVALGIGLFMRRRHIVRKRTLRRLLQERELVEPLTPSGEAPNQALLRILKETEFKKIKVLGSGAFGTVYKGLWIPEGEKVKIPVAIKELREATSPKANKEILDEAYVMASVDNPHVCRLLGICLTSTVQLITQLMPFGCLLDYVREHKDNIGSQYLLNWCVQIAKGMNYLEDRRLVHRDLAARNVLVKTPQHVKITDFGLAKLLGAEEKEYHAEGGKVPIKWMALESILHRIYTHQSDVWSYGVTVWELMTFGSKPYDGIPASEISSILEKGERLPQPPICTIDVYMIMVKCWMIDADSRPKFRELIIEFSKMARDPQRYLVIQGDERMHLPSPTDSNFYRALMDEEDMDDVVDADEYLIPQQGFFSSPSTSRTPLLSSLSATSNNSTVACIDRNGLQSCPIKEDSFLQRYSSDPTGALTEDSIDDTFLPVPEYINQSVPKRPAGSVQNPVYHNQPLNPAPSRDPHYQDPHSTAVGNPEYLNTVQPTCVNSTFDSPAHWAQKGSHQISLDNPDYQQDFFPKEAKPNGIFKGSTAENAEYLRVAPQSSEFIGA

[2] = biological target: T2, Receptor tyrosine-protein kinase erbB-2 (Homo sapiens, UniProt P04626); test: Inhibition of ERBb2 by scintillation proximity assay
T2 sequence (P04626 whole entry): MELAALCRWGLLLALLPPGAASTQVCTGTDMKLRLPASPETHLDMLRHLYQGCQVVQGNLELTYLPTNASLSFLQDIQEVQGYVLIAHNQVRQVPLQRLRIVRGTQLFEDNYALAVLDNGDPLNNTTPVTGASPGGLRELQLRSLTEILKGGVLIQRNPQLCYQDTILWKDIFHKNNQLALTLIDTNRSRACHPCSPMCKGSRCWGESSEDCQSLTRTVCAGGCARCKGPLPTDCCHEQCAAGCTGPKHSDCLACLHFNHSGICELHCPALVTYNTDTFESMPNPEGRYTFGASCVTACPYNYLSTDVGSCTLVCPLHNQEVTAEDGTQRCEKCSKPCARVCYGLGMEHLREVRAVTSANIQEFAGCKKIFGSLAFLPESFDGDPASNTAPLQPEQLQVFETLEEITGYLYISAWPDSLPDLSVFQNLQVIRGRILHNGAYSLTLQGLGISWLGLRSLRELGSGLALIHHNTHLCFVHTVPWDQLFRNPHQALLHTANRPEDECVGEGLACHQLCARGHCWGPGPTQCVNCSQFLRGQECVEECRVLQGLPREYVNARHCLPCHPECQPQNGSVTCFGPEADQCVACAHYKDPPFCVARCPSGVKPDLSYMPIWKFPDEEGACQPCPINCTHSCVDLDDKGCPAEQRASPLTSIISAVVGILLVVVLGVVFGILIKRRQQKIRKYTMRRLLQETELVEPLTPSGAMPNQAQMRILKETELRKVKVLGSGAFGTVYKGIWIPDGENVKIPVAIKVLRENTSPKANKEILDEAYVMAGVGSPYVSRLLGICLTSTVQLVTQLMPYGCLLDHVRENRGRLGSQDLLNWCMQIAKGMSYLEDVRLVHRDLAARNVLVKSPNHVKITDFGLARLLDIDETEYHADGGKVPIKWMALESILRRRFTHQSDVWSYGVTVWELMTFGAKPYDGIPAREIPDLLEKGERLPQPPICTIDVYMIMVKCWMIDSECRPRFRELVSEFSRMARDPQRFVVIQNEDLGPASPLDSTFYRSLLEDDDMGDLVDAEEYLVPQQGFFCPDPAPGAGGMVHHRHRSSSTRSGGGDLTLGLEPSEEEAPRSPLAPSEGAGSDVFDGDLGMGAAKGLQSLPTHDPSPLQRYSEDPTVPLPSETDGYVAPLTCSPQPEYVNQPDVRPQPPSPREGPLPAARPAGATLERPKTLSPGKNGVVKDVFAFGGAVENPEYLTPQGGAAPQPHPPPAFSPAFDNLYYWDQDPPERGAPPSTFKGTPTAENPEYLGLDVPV

[3] = biological target: T1, Epidermal growth factor receptor; test: Inhibition of EGFR by HTRF assay
[4] = biological target: T2, Receptor tyrosine-protein kinase erbB-2; test: Inhibition of ERBb2 by HTRF assay

Row | Structure (SMILES) | pEC50 (BT-474) | pIC50 [3] | pIC50 [4] | pEC50 (HN5) | pEC50 (HFF) | pIC50 [1] | pIC50 [2]
1 | CN(C)C(=O)O[C@@H]1CN[C@H](C#Cc2cc3ncnc(Nc4ccc(OCc5cccc(F)c5)c(Cl)c4)c3s2)C1 | 6.64 | – | – | – | – | – | –
2 | O=C(O[C@H]1CN[C@@H](C#Cc2cc3ncnc(Nc4ccc(OCc5cccc(F)c5)c(Cl)c4)c3s2)C1)N1CCOCC1 | 6.92 | – | – | – | – | – | –
3 | CCN(CC)C(=O)O[C@H]1CN[C@H](C#Cc2cc3ncnc(Nc4ccc(OCc5cccc(F)c5)c(Cl)c4)c3s2)C1 | 7.10 | – | – | 6.60 | 5.37 | 7.20 | 7.30
4 | CCNC(=O)O[C@@H]1CN[C@@H](C#Cc2cc3ncnc(Nc4ccc(OCc5cccc(F)c5)c(Cl)c4)c3s2)C1 | 7.22 | 7.30 | – | – | – | – | –
5 | CCN(C)C(=O)O[C@H]1CN[C@H](C#Cc2cc3ncnc(Nc4ccc(OCc5cccc(F)c5)c(Cl)c4)c3s2)C1 | 7.05 | 7.30 | 7.49 | 6.62 | 5.52 | – | –
6 | CS(=O)(=O)CCNC(=O)O[C@H]1CN[C@H](C#Cc2cc3ncnc(Nc4ccc(OCc5cccc(F)c5)c(Cl)c4)c3s2)C1 | 6.54 | 7.40 | 7.49 | 7.52 | 5.09 | – | –
7 | NC(=O)O[C@H]1CN[C@H](C#Cc2cc3ncnc(Nc4ccc(OCc5cccc(F)c5)c(Cl)c4)c3s2)C1 | 7.60 | 7.40 | 7.80 | 7.00 | 5.26 | – | –
8 | CCNC(=O)O[C@@H]1CN[C@H](C#Cc2cc3ncnc(Nc4ccc(OCc5cccc(F)c5)c(Cl)c4)c3s2)C1 | 6.89 | – | – | – | – | – | –
9 | O=C(O[C@@H]1CN[C@@H](C#Cc2cc3ncnc(Nc4ccc(OCc5cccc(F)c5)c(Cl)c4)c3s2)C1)N1CCOCC1 | 7.30 | – | – | – | – | – | –
10 | O=C(O[C@H]1CN[C@H](C#Cc2cc3ncnc(Nc4ccc(OCc5cccc(F)c5)c(Cl)c4)c3s2)C1)N1CCNCC1 | 7.00 | 7.20 | 7.70 | 6.40 | 5.29 | – | –
11 | O=C(O[C@H]1CN[C@H](C#Cc2cc3ncnc(Nc4ccc(OCc5cccc(F)c5)c(Cl)c4)c3s2)C1)N1CCCC1 | 7.22 | – | – | 6.92 | 5.46 | 7.00 | 7.49
12 | O=C(O[C@@H]1CN[C@H](C#Cc2cc3ncnc(Nc4ccc(OCc5cccc(F)c5)c(Cl)c4)c3s2)C1)N1CCOCC1 | 6.85 | – | – | – | – | – | –

The remaining compounds from weak to strong by pEC50 (BT-474), led by results:

Row | pEC50 (BT-474) | pIC50 [3] | pIC50 [4] | Structure (SMILES) | pEC50 (HN5) | pEC50 (HFF) | pIC50 [1] | pIC50 [2]
13 | 7.52 | – | – | CCNC(=O)O[C@H]1CN[C@H](C#Cc2cc3ncnc(Nc4ccc(OCc5cccc(F)c5)c(Cl)c4)c3s2)C1 [GSK-192082A] | 7.02 | 5.38 | – | –
14 | 7.52 | – | – | CN(C)C(=O)O[C@H]1CN[C@H](C#Cc2cc3ncnc(Nc4ccc(OCc5cccc(F)c5)c(Cl)c4)c3s2)C1 [GSK-182497A] | – | 5.55 | – | –
15 | 7.52 | – | – | O=C(O[C@H]1CN[C@H](C#Cc2cc3ncnc(Nc4ccc(OCc5cccc(F)c5)c(Cl)c4)c3s2)C1)N1CCOCC1 [GW869810X] | – | 5.31 | – | –
16 | 7.52 | – | – | CNC(=O)O[C@H]1CN[C@H](C#Cc2cc3ncnc(Nc4ccc(OCc5cccc(F)c5)c(Cl)c4)c3s2)C1 | 7.22 | 5.30 | – | –
17 | 7.52 | – | – | CN(C)C(=O)O[C@@H]1CN[C@@H](C#Cc2cc3ncnc(Nc4ccc(OCc5cccc(F)c5)c(Cl)c4)c3s2)C1 [GSK-238063A] | – | – | – | –
18 | 7.70 | – | – | CS(=O)(=O)CCNCc1ccc(-c2ccc3ncnc(Nc4ccc(OCc5cccc(F)c5)c(Cl)c4)c3c2)o1 [LAPATINIB DITOSYLATE] | – | – | – | –
19 | 7.70 | 7.49 | – | CCNC(=O)O[C@H]1CN[C@@H](C#Cc2cc3ncnc(Nc4ccc(OCc5cccc(F)c5)c(Cl)c4)c3s2)C1 | – | – | – | –
20 | 8.00 | – | – | C=CC(=O)Nc1cc2c(Nc3ccc(F)c(Cl)c3)ncnc2cc1OCCCN1CCOCC1 [CANERTINIB] | 7.30 | – | – | –
21 | 8.00 | – | – | CN(C)C(=O)O[C@H]1CN[C@@H](C#Cc2cc3ncnc(Nc4ccc(OCc5cccc(F)c5)c(Cl)c4)c3s2)C1 | – | – | – | –
